Experimental data as given in patent US20200338519A1, “METHOD FOR PREPARING LIPOSOME” (priority 2015, published 2020).

Assay: Solubility in water and aqueous medium
Assay type: physicochemical

## moexitecan
  Solubility in water and an aqueous medium: insoluble or almost insoluble
